Source: patent US12358951
Read-outs that look alike come from different tables or passages of the source.

Conditions: amide bond, THF

## CC[C@@H]1CN(CC2CCCC2)[C@@H](C)C(=O)N(C)[C@@H](CC(C)C)C(=O)N[C@@H](C2CCCCC2)C(=O)N[C@@H](CNC(=O)OCc2ccccc2)C(=O)N[C@@H]([C@H](C)OCc2ccccc2)C(=O)N1
From CC[C@@H](N)CN(CC1CCCC1)[C@@H](C)C(=O)N(C)[C@@H](CC(C)C)C(=O)N[C@H](C(=O)N[C@@H](CNC(=O)OCc1ccccc1)C(=O)N[C@H](C(=O)O)[C@H](C)OCc1ccccc1)C1CCCCC1, HATU, DIPEA, 1.24 mM, 25.0 °C, 2.5 h
  ring closure, yield of all isomers: 45.7%

## CCCCCCN1C[C@@H](CCF)NC(=O)[C@H]([C@H](C)OCc2ccccc2)NC(=O)[C@H](CNC(=O)OCc2ccccc2)NC(=O)[C@H](C2CCCCC2)NC(=O)[C@H](CC(C)C)N(C)C(=O)[C@@H]1C
From CCCCCCN(C[C@H](N)CCF)[C@@H](C)C(=O)N(C)[C@@H](CC(C)C)C(=O)N[C@H](C(=O)N[C@@H](CNC(=O)OCc1ccccc1)C(=O)N[C@H](C(=O)O)[C@H](C)OCc1ccccc1)C1CCCCC1, HATU/DIPEA, 1.36 mM, 25.0 °C, 20.0 h
  ring closure, yield of all isomers: 43.4%

## CCCC[C@H]1C(=O)N(C)[C@@H](CC(C)C)C(=O)N[C@@H](C2CCCCC2)C(=O)N[C@@H](CNC(=O)OCc2ccccc2)C(=O)N[C@@H](COCCCNC(=O)OC(C)(C)C)C(=O)N[C@H](C)CN1CC1CC1
From CCCC[C@@H](C(=O)N(C)[C@@H](CC(C)C)C(=O)N[C@H](C(=O)N[C@@H](CNC(=O)OCc1ccccc1)C(=O)O)C1CCCCC1)N(CC1CC1)C[C@@H](C)NC(=O)[C@@H](N)COCCCNC(=O)OC(C)(C)C, HATU/DIPEA, 1.14 mM, 19.0 h
  ring closure, yield of all isomers: 30%

## CCCCCC[C@H]1OC[C@@H](C)NC(=O)[C@H](COC2CC3(C2)CN(C(=O)OC(C)(C)C)C3)NC(=O)[C@H](CNC(=O)OCc2ccccc2)NC(=O)[C@H](C2CCCCCC2)NC(=O)[C@H](CCC)N(C)C(=O)[C@@H]1C
From CCCCCC[C@@H](OC[C@@H](C)N)[C@@H](C)C(=O)N(C)[C@@H](CCC)C(=O)N[C@H](C(=O)N[C@@H](CNC(=O)OCc1ccccc1)C(=O)N[C@@H](COC1CC2(C1)CN(C(=O)OC(C)(C)C)C2)C(=O)O)C1CCCCCC1, HATU, DIPEA, 1.35 mM, 25.0 °C, 2.5 h
  ring closure, yield of all isomers: 39%

## CCCCCC[C@H]1OC[C@@H](C)NC(=O)[C@H](CNC(=O)OC(C)(C)C)NC(=O)[C@H](CNC(=O)OCc2ccccc2)NC(=O)[C@H](C2CCCCC2)NC(=O)[C@H](CC(C)C)N(C)C(=O)[C@@H]1C
From CCCCCC[C@@H](OC[C@@H](C)N)[C@@H](C)C(=O)N(C)[C@@H](CC(C)C)C(=O)N[C@H](C(=O)N[C@@H](CNC(=O)OCc1ccccc1)C(=O)N[C@@H](CNC(=O)OC(C)(C)C)C(=O)O)C1CCCCC1, HATU/DIPEA, 1.08 mM, 25.0 °C, 16.0 h
  ring closure, yield of all isomers: 55%
